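GI50 = concentration required for 50% inhibition of growth. TGI: total growth inhibition.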
Experiments:
Assay in all cases: NCI anticancer screen, dose series, 384-well format
M14 melanoma = system: M14 melanoma
UACC-257 melanoma = system: UACC-257 melanoma
MDA-MB-468 breast = system: MDA-MB-468 breast
SN12C renal = system: SN12C renal
MOLT-4 leukemia = system: MOLT-4 leukemia
MCF7 breast = system: MCF7 breast
PC-3 prostate = system: PC-3 prostate
T-47D breast = system: T-47D breast
A549 NSCLC = system: A549 NSCLC
UO-31 renal = system: UO-31 renal
HCT-116 colon = system: HCT-116 colon
CAKI-1 renal = system: CAKI-1 renal
CCRF-CEM leukemia = system: CCRF-CEM leukemia
RXF 393 renal = system: RXF 393 renal
SF-539 CNS = system: SF-539 CNS
OVCAR-8 ovarian = system: OVCAR-8 ovarian
A498 renal = system: A498 renal
SK-MEL-28 melanoma = system: SK-MEL-28 melanoma
HCT-15 colon = system: HCT-15 colon
SK-MEL-5 melanoma = system: SK-MEL-5 melanoma
IGROV1 ovarian = system: IGROV1 ovarian
SR leukemia = system: SR leukemia
NCI-H226 lung = system: NCI-H226 lung
NCI-H23 lung = system: NCI-H23 lung
RPMI-8226 leukemia = system: RPMI-8226 leukemia
HCC-2998 colon = system: HCC-2998 colon
SF-295 CNS = system: SF-295 CNS
NCI-H522 lung = system: NCI-H522 lung
HOP-62 NSCLC = system: HOP-62 NSCLC
EKVX NSCLC = system: EKVX NSCLC
ACHN renal = system: ACHN renal
MDA-MB-435 melanoma = system: MDA-MB-435 melanoma
SNB-75 CNS = system: SNB-75 CNS
HT29 colon = system: HT29 colon
OVCAR-5 ovarian = system: OVCAR-5 ovarian
NCI/ADR-RES ovarian = system: NCI/ADR-RES ovarian
SNB-19 CNS = system: SNB-19 CNS
TK-10 renal = system: TK-10 renal
NCI-H460 NSCLC = system: NCI-H460 NSCLC
HOP-92 NSCLC = system: HOP-92 NSCLC
OVCAR-4 ovarian = system: OVCAR-4 ovarian
COLO 205 colon = system: COLO 205 colon
NCI-H322M lung = system: NCI-H322M lung
BT-549 breast = system: BT-549 breast
UACC-62 melanoma = system: UACC-62 melanoma
LOX IMVI melanoma = system: LOX IMVI melanoma
HS 578T breast = system: HS 578T breast

## C[C@@H](C(=O)Nc1ccc(Cl)cc1)C1CCC(c2ccnc3ccc(F)cc23)CC1 (some centres undefined)
M14 melanoma
  GI50: 13 µM
  TGI: 40.8 µM
UACC-257 melanoma
  GI50: 13.7 µM
  TGI: 31.4 µM
MDA-MB-468 breast
  GI50: 2.17 µM
  TGI: 8.1 µM
SN12C renal
  GI50: 12.7 µM
  TGI: 28.2 µM
MOLT-4 leukemia
  GI50: 2.22 µM
  TGI: 6.85 µM
MCF7 breast
  GI50: 7.97 µM
  TGI: 25.7 µM
PC-3 prostate
  GI50: 5.72 µM
  TGI: 19 µM
T-47D breast
  GI50: 4.42 µM
  TGI: 25.2 µM
A549 NSCLC
  GI50: 6.9 µM
  TGI: 66.5 µM
UO-31 renal
  GI50: 15.8 µM
  TGI: 83.2 µM
HCT-116 colon
  GI50: 6.31 µM
  TGI: 20.4 µM
CAKI-1 renal
  GI50: 19.2 µM
  TGI: 54.7 µM
CCRF-CEM leukemia
  GI50: 2.64 µM
  TGI: 7.41 µM
RXF 393 renal
  GI50: 6.04 µM
  TGI: 20.9 µM
SF-539 CNS
  GI50: 14.2 µM
  TGI: 27.5 µM
OVCAR-8 ovarian
  GI50: 10.4 µM
  TGI: 25.8 µM
A498 renal
  GI50: 5.31 µM
  TGI: 21.1 µM
SK-MEL-28 melanoma
  GI50: 20.6 µM
  TGI: > 92 µM
HCT-15 colon
  GI50: 11.8 µM
  TGI: 25.6 µM
SK-MEL-5 melanoma
  GI50: 4.31 µM
  TGI: 16.2 µM
IGROV1 ovarian
  GI50: 8.55 µM
  TGI: > 47.7 µM
SR leukemia
  GI50: 0.584 µM
  TGI: 1.46 µM
NCI-H226 lung
  GI50: 12.2 µM
  TGI: 28 µM
NCI-H23 lung
  GI50: 3.76 µM
  TGI: 16 µM
RPMI-8226 leukemia
  GI50: 2.58 µM
  TGI: 7.6 µM
HCC-2998 colon
  GI50: 4.23 µM
  TGI: 15.9 µM
SF-295 CNS
  GI50: 10 µM
  TGI: 31.1 µM
NCI-H522 lung
  GI50: 3.24 µM
  TGI: 15.9 µM
HOP-62 NSCLC
  GI50: 12.8 µM
  TGI: 29.5 µM
EKVX NSCLC
  GI50: 4.09 µM
  TGI: 18.7 µM
ACHN renal
  GI50: 9.63 µM
  TGI: 41.4 µM
MDA-MB-435 melanoma
  GI50: 16.9 µM
  TGI: 36.7 µM
SNB-75 CNS
  GI50: 14.7 µM
  TGI: 37.9 µM
HT29 colon
  GI50: 9.74 µM
  TGI: 23.1 µM
OVCAR-5 ovarian
  GI50: 13 µM
  TGI: 35.3 µM
NCI/ADR-RES ovarian
  GI50: 5.62 µM
  TGI: 22 µM
SNB-19 CNS
  GI50: 17.5 µM
  TGI: 52.8 µM
TK-10 renal
  GI50: 11.3 µM
  TGI: 86.2 µM
NCI-H460 NSCLC
  GI50: 2.85 µM
  TGI: 8.81 µM
HOP-92 NSCLC
  GI50: 8.04 µM
  TGI: 29.4 µM
OVCAR-4 ovarian
  GI50: 13.9 µM
  TGI: 50.2 µM
COLO 205 colon
  GI50: 17.4 µM
  TGI: > 62.3 µM
NCI-H322M lung
  GI50: 17.7 µM
  TGI: 78.2 µM
BT-549 breast
  GI50: 7.14 µM
  TGI: 20.6 µM
UACC-62 melanoma
  GI50: 14.9 µM
  TGI: 29.3 µM
LOX IMVI melanoma
  GI50: 8.67 µM
  TGI: 21.2 µM
HS 578T breast
  GI50: 12.7 µM
  TGI: 27.4 µM
